According to patent publication US6841563B1, “Aryloxy propanolamines for improving livestock production” (Eli Lilly and Company, priority 1999, dated 2005):
Marks after values point to notes of the source that are not given here.

Assays:
[1] = Weight gain, feed efficiency and carcass characteristics, last 14 days of growing period in broiler chickens; format: in vivo; conditions: for Dressing Percentage / Fat Pad Weight / Final Weight / Hot Carcass Weights / Pen Feed Intake / Total 14 day Weight Gain / Viscera Weight / Feed Efficiency F/G: day 35-49; for Feed Efficiency F/G: pen feed intake/total pen weight; for increase in weight gain over control / improvement of feed efficiency versus control: 14-day treatment period
Text: Approximately 1500 Peterson-Hubbard, day-old, male chicks were used in a randomized, complete-block design with 4 treatments (Control, Clenbuterol at 1 PPM, and Compound 6 at 3 and 15 PPM (mg/kg feed)). The testing facility contained 36 pens, divided equally into 6 blocks. Treatments were randomly allotted to pens within each block. Each treatment consisted of 6 pens with 10 birds per pen.
Day-of-age birds were obtained from Pine Manor Hatchery in Goshen, Ind. Approximately 40 birds per pen were set at random upon receipt. On day 30 of the growout period, all birds were weighed and the 15 birds closest to the block mean were selected. These birds were allowed to acclimate until day 35 of age. On that day, all remaining birds were weighed again, and the 10 birds/pen closest to the block mean were chosen for the treatment phase. Birds were provided ad libitum access to feed and water throughout the trial. All birds were fed a 23% crude protein corn-soy ration from day 1 until day 18 of age. The feed was changed to a 20% crude protein corn-soy ration from day 18 to day 49. The treatment feed was mixed using the same 20% crude protein basal ration. Treatments were administered in the feed from day 35 through day 49. Feed consumption was calculated over the entire 14-day treatment period. Birds were weighed at trial completion (day 49), and transported to Purdue University, West Lafayette, Ind. 47907, U.S.A. meat laboratory for slaughter and carcass measurements on day 50. Weights of the hot carcass, fat pad, and viscera were taken on all animals.

[2] = Intravenous administration to cattle: serum non-esterified fatty acid (NEFA) and serum urea nitrogen (SUN) levels; format: in vivo
Text: Intravenous administration of the compounds of the present invention to cattle increases serum non-esterified fatty acids and decreases serum urea. In this Example, angus/angus cross calves, both heifers and steers, weighing approximately 282 pounds (128 kg) initially to 788 pounds (357.8 kg) over the course of these studies, were placed in pens at 5 calves per pen. The cattle were acclimated to the pens for at least 1 week prior to initiating the study.
Calves were fed ad libitum twice daily, (approximately 6-15 pounds (2.7-6.8 kg)/day). During the treatment day, in the A.M. period, the feeding times were staggered to ensure that all animals were fed approximately one hour before the treatments were administered. During the P.M. treatment period, the cattle were fed immediately after receiving the P.M. injection.
After taking a pretreatment (T=O) blood sample from each animal, a 40 μg per kilogram dose of a test compound was administered intravenously in the jugular vein at 6:30 A.M. and 2:30 P.M. Each test compound was administered at a concentration of 1.00-1.25 mg/ml in a treatment vehicle that was a 50/50 mixture of polyethylene glycol 200/water.
A blood sample was taken at fifteen minutes post-treatment (T+15 min). The calves were returned to their respective pens until their next treatment, approximately eight hours later. The next morning at 6:30 A.M. a blood sample was collected from all calves at 24 hours post-treatment (T+24 h). All blood samples were analyzed for the non-esterified fatty acid level (NEFA) and serum urea nitrogen level (SUN). The post-treatment NEFA and SUN levels in each individual animal were compared with the levels found before treatment.

Q: With `CC(C)(Cc1ccc(Oc2ncccc2C(N)=O)cc1)NC[C@H](O)COc1cccc2[nH]ccc12` [Compound 6, (S)-2-[4-[2-[2-Hydroxy-3-(1H-indol-4-yloxy)propylamino]-2-methylpropyl]-phenoxy]-3-pyridinecarboxamide] as the molecule, how does the “Dressing Percentage” value ([1]; 3 PPM in feed) read?
A: The value was 72.43*.

Q: What about the “Fat Pad Weight” value ([1]; 3 PPM in feed) of the same molecule?
A: The value was 28.67 g.

Q: What about the “Final Weight” value ([1]; 3 PPM in feed) of the same molecule?
A: Its value is 3.02 kg.

Q: What about the “Hot Carcass Weights” value ([1]; 3 PPM in feed) of the same molecule?
A: The value was 2175.69* g.

Q: What about the “Pen Feed Intake” value ([1]; 3 PPM in feed) of the same molecule?
A: Its value is 25.74 kg.

Q: And the “Total 14 day Weight Gain” value ([1]; 3 PPM in feed)?
A: Its value is 1.30 kg.

Q: And the “Viscera Weight” value ([1]; 3 PPM in feed)?
A: The value was 283.04 g.

Q: And the “Feed Efficiency F/G” value ([1]; 3 PPM in feed)?
A: The value was 1.95.

Q: What about the “increase in weight gain over control” value ([1]; 3 PPM, P=0.0987) of the same molecule?
A: Its value is 3.17%.

Q: And the “improvement of feed efficiency versus control” value ([1]; 3 PPM, P=0.2936)?
A: Its value is 2.50%.

Q: And the “increase in hot carcass weights compared to control” value ([1]; 3 PPM, P=0.0174)?
A: Its value is 2.50%.

Q: And the “increase in fat pad weight” value ([1]; 3 PPM, P=0.1069)?
A: The value was 9.68%.

Q: What about the “decrease in viscera weights with respect to control” value ([1]; 3 PPM, P=0.3981) of the same molecule?
A: Its value is 1.50%.

Q: What about the “Dressing Percentage” value ([1]; 15 PPM in feed) of the same molecule?
A: The value was 72.63**.

Q: And the “Fat Pad Weight” value ([1]; 15 PPM in feed)?
A: The value was 27.21 g.

Q: And the “Final Weight” value ([1]; 15 PPM in feed)?
A: Its value is 3.02 kg.

Q: What about the “Hot Carcass Weights” value ([1]; 15 PPM in feed) of the same molecule?
A: The value was 2182.55** g.

Q: And the “Pen Feed Intake” value ([1]; 15 PPM in feed)?
A: The value was 25.25 kg.

Q: What about the “Total 14 day Weight Gain” value ([1]; 15 PPM in feed) of the same molecule?
A: The value was 1.30 kg.

Q: What about the “Viscera Weight” value ([1]; 15 PPM in feed) of the same molecule?
A: Its value is 285.49 g.

Q: And the “Feed Efficiency F/G” value ([1]; 15 PPM in feed)?
A: Its value is 1.94.

Q: What about the “increase in weight gain over control” value ([1]; 15 PPM, P=0.0756) of the same molecule?
A: The value was 3.17%.

Q: And the “improvement of feed efficiency versus control” value ([1]; 15 PPM, P=0.1957)?
A: The value was 3.00%.

Q: And the “increase in hot carcass weights compared to control” value ([1]; 15 PPM, P=0.0078)?
A: The value was 2.82%.

Q: What about the “increase in fat pad weight” value ([1]; 15 PPM, P=0.4814) of the same molecule?
A: Its value is 4.09%.

Q: What about the “decrease in viscera weights with respect to control” value ([1]; 15 PPM, P=0.7279) of the same molecule?
A: The value was 0.65%.

Q: What about the “ΔNEFA 24 Hours” value ([2]; 40 μg per kilogram i.v. twice, T+24 h minus T=0, mean of five animals) of the same molecule?
A: The value was -1.44 µmol/L.

Q: What about the “ΔNEFA 15 Min.” value ([2]; 40 μg per kilogram i.v., T+15 min minus T=0, mean of five animals) of the same molecule?
A: The value was 40.7 µmol/L.

Q: What about the change in vivo at 0.04 mg/kg ([2]; Bos taurus, iv, 40 μg per kilogram i.v. twice, 24 hours post treatment vs baseline T=0, mean of five animals, read-out: Δ% SUN 24 Hours) of the same molecule?
A: Its change in vivo at 0.04 mg/kg is -47%.

Q: And the “lipolytic effects (non-esterified fatty acid levels)” value ([2]; fifteen minutes and twenty-four hours after administration)?
A: Its value is “modest lipolytic effects”.

Q: And the “anabolic effects (change in serum urea nitrogen levels)” value ([2]; twenty-four hours after administration, compared with the corresponding carboxamide regioisomers)?
A: Its value is “significantly greater”.
